Patent US9776965B2, “Pyrrolidin-2-one and piperidin-2-one derivatives as 11-beta hydroxysteroid dehydrogenase inhibitors” (Janssen Pharmaceutica N.V., priority 2004, dated 2017)

Experiments:
[1] = biological target: T1, 11b-HSD2 (Homo sapiens, UniProt P80365); assay: Cellular assay, 11b-HSD2 activity in HepG2 cells; type: cell-based; set-up: endogenous in cells; host or cells: HepG2 (ATCC HB-8065); settings: 4 hour pre-incubation; for IC50: read-out: [C2] HSD2 cellular HepG2 Score
T1 sequence (P80365 1-405): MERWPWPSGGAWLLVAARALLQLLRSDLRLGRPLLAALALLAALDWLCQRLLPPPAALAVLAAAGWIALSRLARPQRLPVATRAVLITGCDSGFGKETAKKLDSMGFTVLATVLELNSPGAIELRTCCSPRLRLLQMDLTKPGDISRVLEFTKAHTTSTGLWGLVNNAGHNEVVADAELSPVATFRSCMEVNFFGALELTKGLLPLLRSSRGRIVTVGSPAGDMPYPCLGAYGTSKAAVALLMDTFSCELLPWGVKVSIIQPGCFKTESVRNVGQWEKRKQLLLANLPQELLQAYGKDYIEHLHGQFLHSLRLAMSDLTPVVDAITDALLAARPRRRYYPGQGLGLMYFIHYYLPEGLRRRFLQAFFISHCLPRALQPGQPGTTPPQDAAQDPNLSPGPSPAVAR
Description: The effects on 11b-HSD2 activity was studied in HepG2 and LCC-PK1-cells HepG2-cells (ATCC HB-8065) were seeded in 12 well plates at a density of 100,000 cells/ml and grown at 37 C in a humidified 5% CO2 atmosphere in MEM-Rega-3 medium supplemented with 10% heat inactivated foetal calf serum, 2 mM L-glutamine and sodium bicarbonate). Medium was refreshed twice a week.
Following a 4 hour pre-incubation with test compound, 0.5 μCi ^3H-cortisol or corticosterone, was added to the cultures. One hour later, the medium was extracted on Extrelut^3-columns with 15 ml diethyl ether and the extract was analysed by HPLC as described above.
(§1) As for the enzymatic assays, the compounds to be tested were taken from a stock solution and tested at a final concentration ranging from […] to 3.10^−9M. From the thus obtained dose response curves, the pIC50 value was calculated and scored as follows; Score 1=pIC50 value<5, Score 2=pIC50 value in the range of 5 to 6, Score 3=pIC50 value>6. Some of the thus obtained results are summarized in the table below (in this table NT stands for Not Tested).

[2] = biological target: T2, 11b-HSD1 (Mus musculus, UniProt P50172); assay: Cellular assay, 11b-HSD1 activity in differentiated 3T3-L1 cells; type: cell-based; settings: 4 hour pre-incubation; for IC50: read-out: [C2] HSD1 cellular 3T3-L1 Score
T2 construct: Fibroblasts were differentiated into adipocytes; endogenous in cells; host or cells: differentiated 3T3-L1 cells (ATCC-CL-173)
T2 sequence (P50172 whole entry): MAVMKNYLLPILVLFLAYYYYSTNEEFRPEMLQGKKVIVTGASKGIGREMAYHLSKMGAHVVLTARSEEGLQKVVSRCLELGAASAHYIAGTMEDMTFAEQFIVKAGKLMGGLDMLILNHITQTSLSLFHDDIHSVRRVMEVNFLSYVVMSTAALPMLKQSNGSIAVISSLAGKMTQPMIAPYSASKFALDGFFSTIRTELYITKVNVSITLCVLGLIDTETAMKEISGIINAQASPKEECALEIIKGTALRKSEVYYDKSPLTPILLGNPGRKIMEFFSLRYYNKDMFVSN
Description: The effects on 11b-HSD1 activity was measured in differentiated 3T3-L1 cells and rat hepatocytes.
Mouse fibroblast 3T3-L1 cells (ATCC-CL-173) were seeded at a density of 16500 cells/ml in 12 well plates and grown for 7 days in DMEM medium (supplemented with 10% heat inactivated foetal calf serum, 2 mM glutamine and 25 mg gentamycin) at 37 C in a humidified 5% CO2 atmosphere. Medium was refreshed twice a week. Fibroblasts were differentiated into adipocytes at 37 C in a 5% CO2 humidified atmosphere in growth medium containing 2 μg/ml insulin, 55 μg/ml IBMX and 39.2 μg/ml dexamethasone.
Following a 4 hour pre-incubation with test compound, 0.5 μCi ^3H-cortisone or dehydrocorticosterone, was added to the cultures. One hour later, the medium was extracted on Extrelut^3-columns with 15 ml diethyl ether and the extract was analysed by HPLC as described above.
as §1

[3] = biological target: 11b-HSD1 (Homo sapiens, UniProt P28845); assay: Enzymatic assay, 11b-HSD1 dependent conversion of cortisone into cortisol (reductase activity); type: biochemical; settings: recombinant protein, 2 μM cortisone, 45 min at 37 C; for IC50: read-out: [C1] HSD1-prot Reduct Score
11b-HSD1 (Homo sapiens, UniProt P28845), sequence (P28845 whole entry): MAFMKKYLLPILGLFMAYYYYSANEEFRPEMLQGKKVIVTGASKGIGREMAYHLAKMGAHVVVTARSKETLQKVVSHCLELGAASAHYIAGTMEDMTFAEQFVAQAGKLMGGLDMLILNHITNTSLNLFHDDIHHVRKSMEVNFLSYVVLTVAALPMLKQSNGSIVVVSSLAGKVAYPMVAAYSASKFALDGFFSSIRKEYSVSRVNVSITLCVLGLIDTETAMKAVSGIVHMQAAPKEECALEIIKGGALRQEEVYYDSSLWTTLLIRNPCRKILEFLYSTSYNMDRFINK
Description: The effects of compounds on 11b-HSD1 dependent conversion of cortisone into cortisol (reductase activity) was studied in a reaction mixture containing 30 mM Tris-HCl buffer pH 7.2, 180 μM NADPH, 1 mM EDTA, 2 μM cortisone, 1 μl drug and/or solvent and 11 μg recombinant protein in a final volume of 100 μl.
(§2) All incubations were performed for 45 min at 37 C in a water bath. The reaction was stopped by adding 100 μl acetonitrile containing 20 μg corticosterone as internal standard. After centrifugation, the product formation was analysed in the supernatant by HPLC on a Hypersyl BDS-C18 column using 0.05 mM ammonium acetate/methanol (50/50) as solvent. In all of the aforementioned assays, the drugs to be tested were taken from a stock solution and tested at a final concentration ranging from […] to 3.10^−9M. From the thus obtained dose response curves, the pIC50 value was calculated and scored as follows; Score 1=pIC50 value<5, Score 2=pIC50 value in the range of 5 to 6, Score 3=pIC50 value>6. (in this table NT stands for Not Tested).

[4] = biological target: T1, 11b-HSD2; assay: Enzymatic assay, 11b-HSD2 dependent dehydrogenase activity; type: biochemical; settings: recombinant protein, 100 nM cortisol, 45 min at 37 C; read-out: [C1] HSD2 prot Dehydro Score
Description: The effects on the 11b-HSD2 dependent dehydrogenase activity was studied in a reaction mixture containing 0.1M sodium phosphate buffer pH 7.5, 300 μM NAD, 100 nM cortisol (of which 2 nM is 3H-radio labelled), 1 μl drug and/or solvent and 2.5 μg recombinant protein in a final volume of 100 μl.
as §2

C[C@@H](c1ccccc1)N1CC[C@@H](Cc2c(F)cccc2F)C1=O [Compound 70]
IC50 [1]: > 10 µM
IC50 [2]: < 1 µM
IC50 [3]: > 10 µM

O=C1C(Cc2ccccc2Cl)CCN1CCc1ccccc1 (centres unmarked) [Compound 30]
IC50 [4]: > 10 µM
IC50 [1]: > 10 µM
IC50 [2]: < 1 µM
IC50 [3]: < 1 µM

O=C1C(Cc2c(Cl)cccc2Cl)CCN1CCc1ccc(F)cc1 (centres unmarked) [Compound 80]
IC50 [1]: > 10 µM
IC50 [2]: < 1 µM
IC50 [3]: < 1 µM

COc1ccc(C[C@H]2CCN([C@H](C)c3ccccc3)C2=O)cc1 [Compound 65]
IC50 [4]: > 10 µM
IC50 [1]: > 10 µM
IC50 [2]: < 1 µM
IC50 [3]: > 10 µM

Cc1ccc(C[C@@H]2CCN([C@@H](C)c3ccccc3)C2=O)cc1 [Compound 3]
IC50 [1]: > 10 µM
IC50 [2]: 1 to 10 µM
IC50 [3]: < 1 µM

CC[C@H](c1ccccc1)N1CC[C@@H](Cc2c(Cl)cccc2Cl)C1=O [Compound 97]
IC50 [4]: 1 to 10 µM
IC50 [1]: > 10 µM
IC50 [2]: > 10 µM
IC50 [3]: < 1 µM

C[C@@H](c1ccccc1)N1CC[C@@H](Cc2ccccc2)C1=O [Compound 5]
IC50 [1]: > 10 µM
IC50 [2]: 1 to 10 µM
IC50 [3]: 1 to 10 µM

Cc1ccccc1C[C@H]1CCN([C@@H](C)c2ccccc2)C1=O [Compound 2]
IC50 [1]: > 10 µM
IC50 [2]: 1 to 10 µM
IC50 [3]: 1 to 10 µM

Cc1ccc([C@H](O)[C@@H]2CCN([C@@H](C)c3ccccc3)C2=O)c(C)c1 [Compound 69]
IC50 [1]: > 10 µM
IC50 [2]: < 1 µM
IC50 [3]: 1 to 10 µM

C[C@H](c1ccccc1)N1CC[C@H](Cc2ccccc2Cl)C1=O [Compound 41]
IC50 [4]: > 10 µM
IC50 [1]: > 10 µM
IC50 [2]: < 1 µM
IC50 [3]: 1 to 10 µM

C[C@@H](c1ccccc1)N1CC[C@@H](Cc2ccccc2Cl)C1=O [Compound 10]
IC50 [4]: > 10 µM
IC50 [1]: > 10 µM
IC50 [2]: < 1 µM
IC50 [3]: < 1 µM

Cc1cccc(C)c1C[C@@H]1CCN([C@@H](C)c2ccccc2)C1=O [Compound 149]
IC50 [1]: > 10 µM
IC50 [2]: < 1 µM
IC50 [3]: > 10 µM

Cc1ccc(C[C@@H]2CCN([C@H](C)c3ccccc3)C2=O)cc1 [Compound 27]
IC50 [4]: > 10 µM
IC50 [1]: > 10 µM
IC50 [2]: < 1 µM
IC50 [3]: > 10 µM

Cc1cccc(C)c1C[C@H]1CCN([C@@H](C)c2ccccc2)C1=O [Compound 77]
[C2] HSD2 cellular HepG2 Score [1]: 1 (Score 1=pIC50 value<5)
[C2] HSD1 cellular 3T3-L1 Score [2]: 3 (Score 3=pIC50 value>6)
[C1] HSD1-prot Reduct Score [3]: 3 (Score 3=pIC50 value>6)

C[C@@H](c1ccccc1)N1CC[C@H](Cc2ccccc2)C1=O [Compound 6]
IC50 [1]: > 10 µM
IC50 [2]: 1 to 10 µM
IC50 [3]: 1 to 10 µM

O=C1C(Cc2c(Cl)cccc2Cl)CCN1Cc1ccccc1 (centres unmarked) [Compound 59]
IC50 [4]: > 10 µM
IC50 [1]: > 10 µM
IC50 [2]: < 1 µM
IC50 [3]: 1 to 10 µM

COc1ccc(C[C@@H]2CCN([C@@H](C)c3ccccc3)C2=O)c(Cl)c1OC [Compound 119]
IC50 [4]: 1 to 10 µM
IC50 [1]: > 10 µM
IC50 [2]: < 1 µM
IC50 [3]: < 1 µM

Cc1ccccc1C(C)[C@@H]1CCN([C@@H](C)c2ccccc2)C1=O (some centres unmarked) [Compound 162]
IC50 [4]: 1 to 10 µM
IC50 [1]: > 10 µM
IC50 [2]: < 1 µM
IC50 [3]: < 1 µM

C[C@@H](c1ccccc1)N1CC[C@H](Cc2c(F)cccc2F)C1=O [Compound 71]
IC50 [1]: > 10 µM
IC50 [2]: < 1 µM
IC50 [3]: < 1 µM

Cc1cccc(C)c1C[C@H]1CCN([C@@H](C)c2ccccc2)C1=O [Compound 148]
IC50 [1]: > 10 µM
IC50 [2]: < 1 µM
IC50 [3]: > 10 µM

CCCC1(Cc2ccccc2C)CCN([C@@H](C)c2ccccc2)C1=O (mixture of isomers) [Compound 146]
IC50 [2]: > 10 µM
IC50 [3]: > 10 µM

COc1ccc(C[C@H]2CCN([C@@H](C)c3ccccc3)C2=O)c(Cl)c1OC [Compound 120]
IC50 [2]: < 1 µM
IC50 [3]: 1 to 10 µM

C[C@H](c1ccccc1)N1CC[C@H](Cc2ccccc2)C1=O [Compound 36]
IC50 [2]: 1 to 10 µM
IC50 [3]: > 10 µM

C[C@@H](c1ccccc1)N1CC[C@H](CCc2ccc(N(C)C)cc2)C1=O [Compound 131]
IC50 [2]: 1 to 10 µM
IC50 [3]: > 10 µM

Cc1ccccc1C[C@H]1CCN([C@H](C)c2ccccc2)C1=O [Compound 67]
IC50 [2]: < 1 µM
IC50 [3]: 1 to 10 µM

Cc1ccccc1CC[C@H]1CCN([C@@H](C)c2ccccc2)C1=O [Compound 128]
IC50 [2]: 1 to 10 µM
IC50 [3]: 1 to 10 µM

O=C1[C@@H](Cc2c(Cl)cccc2Cl)CCN1[C@@H](CO)c1ccccc1 [Compound 106]
IC50 [2]: > 10 µM
IC50 [3]: 1 to 10 µM

C[C@H](c1ccccc1)N1CC[C@@H](Cc2ccccc2)C1=O [Compound 37]
IC50 [2]: 1 to 10 µM
IC50 [3]: > 10 µM

O=C1C(Cc2ccc(F)cc2Cl)CCCN1CCc1ccccc1 (centres unmarked) [Compound 88]
IC50 [2]: 1 to 10 µM
IC50 [3]: 1 to 10 µM

Cc1ccc(CC2CCN(Cc3ccccc3)C2=O)cc1 (centres unmarked) [Compound 25]
IC50 [2]: < 1 µM
IC50 [3]: > 10 µM

Cc1ccc(C[C@H]2CCN([C@@H](C)c3ccccc3)C2=O)cc1 [Compound 4]
IC50 [1]: > 10 µM
IC50 [2]: 1 to 10 µM
IC50 [3]: > 10 µM

O=C1C(Cc2ccccc2)CCN1CCc1ccccc1 (centres unmarked) [Compound 34]
IC50 [2]: 1 to 10 µM
IC50 [3]: > 10 µM

O=C1C(Cc2ccccc2Cl)CCN1CCCc1ccccc1 (centres unmarked) [Compound 111]
IC50 [2]: 1 to 10 µM
IC50 [3]: 1 to 10 µM

N#Cc1ccccc1CC1CCN(Cc2ccccc2)C1=O (centres unmarked) [Compound 54]
IC50 [2]: 1 to 10 µM
IC50 [3]: > 10 µM

C[C@H](c1ccccc1)N1CC[C@@H](Cc2cccc(Cl)c2)C1=O [Compound 46]
IC50 [2]: > 10 µM
IC50 [3]: > 10 µM

C[C@@H](c1ccccc1)N1CC[C@H](Cc2cc3c(cc2Cl)OCO3)C1=O [Compound 154]
IC50 [1]: 1 to 10 µM
IC50 [2]: < 1 µM
IC50 [3]: > 10 µM

Cc1cccc(C[C@H]2CCN([C@@H](C)c3ccccc3)C2=O)c1 [Compound 15]
IC50 [2]: 1 to 10 µM
IC50 [3]: 1 to 10 µM

Cc1ccc(C[C@H]2CCN([C@H](C)c3ccccc3)C2=O)cc1 [Compound 26]
IC50 [2]: 1 to 10 µM
IC50 [3]: > 10 µM

COc1cc(CC2(Cc3ccc(OCc4ccccc4)c(OC)c3)CCN(CCc3ccccc3)C2=O)ccc1OCc1ccccc1 [Compound 164]
IC50 [2]: > 10 µM
IC50 [3]: > 10 µM

C[C@@H](c1ccccc1)[C@H]1CCN([C@@H](C)c2ccccc2)C1=O [Compound 160]
IC50 [2]: > 10 µM
IC50 [3]: < 1 µM

C[C@H](C[C@H]1CCN([C@@H](C)c2ccccc2)C1=O)c1ccccc1 [Compound 137]
IC50 [2]: < 1 µM
IC50 [3]: < 1 µM
